#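 Test compounds were applied to cells in 96-well plates for 48 hours at 5 doses. Abbreviation: GI50, concentration required for 50% inhibition of growth. At the TGI there is no net growth.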
# Experiments:
# Experiment in all cases: NCI-60 cell line screen, 48 h
# MOLT-4 leukemia = test system: MOLT-4 leukemia
# SK-MEL-5 melanoma = test system: SK-MEL-5 melanoma
# IGROV1 ovarian = test system: IGROV1 ovarian
# HOP-62 NSCLC = test system: HOP-62 NSCLC
# CAKI-1 renal = test system: CAKI-1 renal
# UACC-62 melanoma = test system: UACC-62 melanoma
# COLO 205 colon = test system: COLO 205 colon
# HCT-15 colon = test system: HCT-15 colon
# SNB-75 CNS = test system: SNB-75 CNS
# U251 CNS = test system: U251 CNS
# OVCAR-8 ovarian = test system: OVCAR-8 ovarian
# NCI-H23 lung = test system: NCI-H23 lung
# SW-620 colon = test system: SW-620 colon
# HCT-116 colon = test system: HCT-116 colon
# TK-10 renal = test system: TK-10 renal
# UO-31 renal = test system: UO-31 renal
# OVCAR-4 ovarian = test system: OVCAR-4 ovarian
# HS 578T breast = test system: HS 578T breast
# NCI-H522 lung = test system: NCI-H522 lung
# ACHN renal = test system: ACHN renal
# LOX IMVI melanoma = test system: LOX IMVI melanoma
# EKVX NSCLC = test system: EKVX NSCLC
# RPMI-8226 leukemia = test system: RPMI-8226 leukemia
# CCRF-CEM leukemia = test system: CCRF-CEM leukemia
# PC-3 prostate = test system: PC-3 prostate
# NCI-H460 lung = test system: NCI-H460 lung
# SF-295 CNS = test system: SF-295 CNS
# SF-539 CNS = test system: SF-539 CNS
# SK-OV-3 ovarian = test system: SK-OV-3 ovarian
# SR leukemia = test system: SR leukemia
# SNB-19 CNS = test system: SNB-19 CNS
# MDA-MB-435 = test system: MDA-MB-435
# A549 NSCLC = test system: A549 NSCLC
# SF-268 CNS = test system: SF-268 CNS
# MDA-MB-231 breast = test system: MDA-MB-231 breast
# NCI/ADR-RES ovarian = test system: NCI/ADR-RES ovarian
# 786-0 renal = test system: 786-0 renal
# SN12C renal = test system: SN12C renal
# HL-60(TB) leukemia = test system: HL-60(TB) leukemia
# SK-MEL-28 melanoma = test system: SK-MEL-28 melanoma
# HCC-2998 colon = test system: HCC-2998 colon
# OVCAR-5 ovarian = test system: OVCAR-5 ovarian
# RXF 393 renal = test system: RXF 393 renal
# HT29 colon = test system: HT29 colon
# SK-MEL-2 melanoma = test system: SK-MEL-2 melanoma
# UACC-257 melanoma = test system: UACC-257 melanoma
# M14 melanoma = test system: M14 melanoma
# NCI-H226 lung = test system: NCI-H226 lung
# A498 renal = test system: A498 renal
# BT-549 breast = test system: BT-549 breast
# T-47D breast = test system: T-47D breast
# OVCAR-3 ovarian = test system: OVCAR-3 ovarian
# DU-145 prostate = test system: DU-145 prostate
# K-562 leukemia = test system: K-562 leukemia
# KM12 colon = test system: KM12 colon
# MCF7 breast = test system: MCF7 breast
# HOP-92 NSCLC = test system: HOP-92 NSCLC
compound,measurement,setting,value
C=C(C)C(=O)Oc1ccc(N=Nc2ccc(C)cc2)ccc1=O,GI50,MOLT-4 leukemia,2.57 µM
same,TGI,MOLT-4 leukemia,8.18 µM
same,GI50,SK-MEL-5 melanoma,4 µM
same,TGI,SK-MEL-5 melanoma,15.2 µM
same,GI50,IGROV1 ovarian,2.54 µM
same,TGI,IGROV1 ovarian,9.15 µM
same,GI50,HOP-62 NSCLC,3.78 µM
same,TGI,HOP-62 NSCLC,14.9 µM
same,GI50,CAKI-1 renal,2.26 µM
same,TGI,CAKI-1 renal,5.6 µM
same,GI50,UACC-62 melanoma,1.95 µM
same,TGI,UACC-62 melanoma,4.42 µM
same,GI50,COLO 205 colon,3.58 µM
same,TGI,COLO 205 colon,14.6 µM
same,GI50,HCT-15 colon,3.55 µM
same,TGI,HCT-15 colon,18.5 µM
same,GI50,SNB-75 CNS,2.66 µM
same,TGI,SNB-75 CNS,10.3 µM
same,GI50,U251 CNS,3.11 µM
same,TGI,U251 CNS,12.7 µM
same,GI50,OVCAR-8 ovarian,3.15 µM
same,TGI,OVCAR-8 ovarian,10.9 µM
same,GI50,NCI-H23 lung,4.52 µM
same,TGI,NCI-H23 lung,17.8 µM
same,GI50,SW-620 colon,3.16 µM
same,TGI,SW-620 colon,13.4 µM
same,GI50,HCT-116 colon,2.98 µM
same,TGI,HCT-116 colon,10.5 µM
same,GI50,TK-10 renal,10.7 µM
same,TGI,TK-10 renal,82.4 µM
same,GI50,UO-31 renal,2.55 µM
same,TGI,UO-31 renal,8.38 µM
same,GI50,OVCAR-4 ovarian,3.63 µM
same,TGI,OVCAR-4 ovarian,14.4 µM
same,GI50,HS 578T breast,4.33 µM
same,TGI,HS 578T breast,24.3 µM
same,GI50,NCI-H522 lung,4.95 µM
same,TGI,NCI-H522 lung,18.1 µM
same,GI50,ACHN renal,3.96 µM
same,TGI,ACHN renal,15.8 µM
same,GI50,LOX IMVI melanoma,2.72 µM
same,TGI,LOX IMVI melanoma,11.4 µM
same,GI50,EKVX NSCLC,2.32 µM
same,TGI,EKVX NSCLC,8.76 µM
same,GI50,RPMI-8226 leukemia,3.73 µM
same,TGI,RPMI-8226 leukemia,17.8 µM
same,GI50,CCRF-CEM leukemia,2.24 µM
same,TGI,CCRF-CEM leukemia,9.36 µM
same,GI50,PC-3 prostate,5.54 µM
same,TGI,PC-3 prostate,24.4 µM
same,GI50,NCI-H460 lung,2.85 µM
same,TGI,NCI-H460 lung,10.2 µM
same,GI50,SF-295 CNS,1.66 µM
same,TGI,SF-295 CNS,4.66 µM
same,GI50,SF-539 CNS,5.17 µM
same,TGI,SF-539 CNS,18.1 µM
same,GI50,SK-OV-3 ovarian,4.72 µM
same,TGI,SK-OV-3 ovarian,27.7 µM
same,GI50,SR leukemia,2.47 µM
same,TGI,SR leukemia,8.28 µM
same,GI50,SNB-19 CNS,3.68 µM
same,TGI,SNB-19 CNS,21.8 µM
same,GI50,MDA-MB-435,2.77 µM
same,TGI,MDA-MB-435,11.2 µM
same,GI50,A549 NSCLC,3.81 µM
same,TGI,A549 NSCLC,18.3 µM
same,GI50,SF-268 CNS,2.62 µM
same,TGI,SF-268 CNS,11.2 µM
same,GI50,MDA-MB-231 breast,4.84 µM
same,TGI,MDA-MB-231 breast,22 µM
same,GI50,NCI/ADR-RES ovarian,3.14 µM
same,TGI,NCI/ADR-RES ovarian,11.4 µM
same,GI50,786-0 renal,4.96 µM
same,TGI,786-0 renal,17.8 µM
same,GI50,SN12C renal,3.89 µM
same,TGI,SN12C renal,18.5 µM
same,GI50,HL-60(TB) leukemia,2.39 µM
same,TGI,HL-60(TB) leukemia,7.04 µM
same,GI50,SK-MEL-28 melanoma,3.39 µM
same,TGI,SK-MEL-28 melanoma,11.7 µM
same,GI50,HCC-2998 colon,3.74 µM
same,TGI,HCC-2998 colon,14 µM
same,GI50,OVCAR-5 ovarian,8.26 µM
same,TGI,OVCAR-5 ovarian,21.8 µM
same,GI50,RXF 393 renal,3.93 µM
same,TGI,RXF 393 renal,14.8 µM
same,GI50,HT29 colon,4.28 µM
same,TGI,HT29 colon,15.1 µM
same,GI50,SK-MEL-2 melanoma,8.31 µM
same,TGI,SK-MEL-2 melanoma,28.6 µM
same,GI50,UACC-257 melanoma,2.99 µM
same,TGI,UACC-257 melanoma,13 µM
same,GI50,M14 melanoma,3.21 µM
same,TGI,M14 melanoma,12.7 µM
same,GI50,NCI-H226 lung,3.57 µM
same,TGI,NCI-H226 lung,18.6 µM
same,GI50,A498 renal,3.72 µM
same,TGI,A498 renal,14.6 µM
same,GI50,BT-549 breast,6.63 µM
same,TGI,BT-549 breast,21.3 µM
same,GI50,T-47D breast,3.14 µM
same,TGI,T-47D breast,14.7 µM
same,GI50,OVCAR-3 ovarian,2.09 µM
same,TGI,OVCAR-3 ovarian,8.13 µM
same,GI50,DU-145 prostate,4.36 µM
same,TGI,DU-145 prostate,15.8 µM
same,GI50,K-562 leukemia,3.36 µM
same,TGI,K-562 leukemia,13.6 µM
same,GI50,KM12 colon,3.51 µM
same,TGI,KM12 colon,13.5 µM
same,GI50,MCF7 breast,3.66 µM
same,TGI,MCF7 breast,14.7 µM
same,GI50,HOP-92 NSCLC,3.64 µM
same,TGI,HOP-92 NSCLC,16.1 µM

# — PubChem BioAssay (NCI)
